Patent US8754242B2, “Herbicides” (Syngenta Crop Protection LLC, priority 2007, dated 2014)

Key:
Format in all cases: in vivo
[1] = system: Digitaria sanguinalis (DIGSA); experiment: Test Example 1 pre-emergence herbicidal activity; details: Digitaria sanguinalis, 480 h, rate 250 g/ha, evaluated 20 days later, read-out: Pre-emergence activity DIGSA (100=total damage to plant; 0=no damage to plant)
In short: (§1)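 Once sown in standard soil, pots received an aqueous spray of the formulated active ingredient, either after one day or after ten days of controlled glasshouse growth. Plants then grew under optimum greenhouse conditions. Herbicidal effect was assessed visually 15 (post-emergence) or 20 (pre-emergence) days later, 100 meaning total plant damage.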

Lolium perenne (LOLPE) [2] = experiment: Test Example 1 pre-emergence herbicidal activity; details: Lolium perenne, 480 h, rate 250 g/ha, evaluated 20 days later, read-out: Pre-emergence activity LOLPE (100=total damage to plant; 0=no damage to plant)
In short: as §1

Avena fatua (AVEFA) [3] = experiment: Test Example 1 pre-emergence herbicidal activity; details: Avena fatua, 480 h, rate 250 g/ha, evaluated 20 days later, read-out: Pre-emergence activity AVEFA (100=total damage to plant; 0=no damage to plant)
In short: as §1

[4] = system: Echinochloa crus-galli (ECHCG); experiment: Test Example 1 pre-emergence herbicidal activity; details: Echinochloa crus-galli, 480 h, rate 250 g/ha, evaluated 20 days later, read-out: Pre-emergence activity ECHCG (100=total damage to plant; 0=no damage to plant)
In short: as §1

[5] = system: Alopecurus myosuroides (ALOMY); experiment: Test Example 1 pre-emergence herbicidal activity; details: Alopecurus myosuroides, 480 h, rate 250 g/ha, evaluated 20 days later, read-out: Pre-emergence activity ALOMY (100=total damage to plant; 0=no damage to plant)
In short: as §1

Setaria faberi (SETFA) [6] = experiment: Test Example 1 pre-emergence herbicidal activity; details: Setaria faberi, 480 h, rate 250 g/ha, evaluated 20 days later, read-out: Pre-emergence activity SETFA (100=total damage to plant; 0=no damage to plant)
In short: as §1

[7] = system: Digitaria sanguinalis (DIGSA); experiment: Test Example 1 post-emergence herbicidal activity; details: 360 h, rate 125 g/ha, evaluated 15 days later, read-out: Post-emergence activity DIGSA (100=total damage to plant; 0=no damage to plant)
In short: as §1

Lolium perenne (LOLPE) [8] = experiment: Test Example 1 post-emergence herbicidal activity; details: 360 h, rate 125 g/ha, evaluated 15 days later, read-out: Post-emergence activity LOLPE (100=total damage to plant; 0=no damage to plant)
In short: as §1

Avena fatua (AVEFA) [9] = experiment: Test Example 1 post-emergence herbicidal activity; details: 360 h, rate 125 g/ha, evaluated 15 days later, read-out: Post-emergence activity AVEFA (100=total damage to plant; 0=no damage to plant)
In short: as §1

[10] = system: Echinochloa crus-galli (ECHCG); experiment: Test Example 1 post-emergence herbicidal activity; details: 360 h, rate 125 g/ha, evaluated 15 days later, read-out: Post-emergence activity ECHCG (100=total damage to plant; 0=no damage to plant)
In short: as §1

[11] = system: Alopecurus myosuroides (ALOMY); experiment: Test Example 1 post-emergence herbicidal activity; details: 360 h, rate 125 g/ha, evaluated 15 days later, read-out: Post-emergence activity ALOMY (100=total damage to plant; 0=no damage to plant)
In short: as §1

Setaria faberi (SETFA) [12] = experiment: Test Example 1 post-emergence herbicidal activity; details: 360 h, rate 125 g/ha, evaluated 15 days later, read-out: Post-emergence activity SETFA (100=total damage to plant; 0=no damage to plant)
In short: as §1

Compound	pest or weed control at 250 g/ha [1] [%]	pest or weed control at 250 g/ha (Lolium perenne (LOLPE) [2]) [%]	pest or weed control at 250 g/ha (Avena fatua (AVEFA) [3]) [%]	pest or weed control at 250 g/ha [4] [%]	pest or weed control at 250 g/ha [5] [%]	pest or weed control at 250 g/ha (Setaria faberi (SETFA) [6]) [%]	pest or weed control at 125 g/ha [7] [%]	pest or weed control at 125 g/ha (Lolium perenne (LOLPE) [8]) [%]	pest or weed control at 125 g/ha (Avena fatua (AVEFA) [9]) [%]	pest or weed control at 125 g/ha [10] [%]	pest or weed control at 125 g/ha [11] [%]	pest or weed control at 125 g/ha (Setaria faberi (SETFA) [12]) [%]
CCc1cc(C)cc(CC)c1C1=C(O)[C@@H]2[C@@H]3O[C@@H](C[C@H]3c3ccc(C#N)cc3)[C@@H]2C1=O [Example T160]	40	40	50	40	30	70	100	70	90	100	90	100
CCc1cc(C)cc(CC)c1C1=C(O)[C@@H]2[C@@H]3O[C@@H](C[C@H]3c3ccc(SC)cc3)[C@@H]2C1=O [Example T162]	40	90	70	80	70	10	100	70	90	100	90	100
CCc1cc(C)cc(CC)c1C1=C(O)[C@@H]2[C@@H]3O[C@@H](C[C@H]3c3ccc(F)cc3F)[C@@H]2C1=O [Example T163]	90	90	60	80	70	90	70	80	80	100	80	90
CCc1cc(C)cc(CC)c1C1=C(O)[C@@H]2[C@@H]3O[C@@H](C[C@H]3c3ccc([N+](=O)[O-])cc3Cl)[C@@H]2C1=O [Example T167]	30	40	40	50	30	0	70	50	50	100	80	70
CCc1cc(C)cc(CC)c1C1=C(O)[C@@H]2[C@@H]3O[C@@H](C[C@H]3c3cc(C(F)(F)F)ccc3Cl)[C@@H]2C1=O [Example T169]	0	40	30	0	20	0	40	30	10	80	90	60
CCc1cc(C)cc(CC)c1C1=C(O)[C@@H]2[C@@H]3O[C@@H](C[C@H]3c3ccc(C(C)=O)cc3)[C@@H]2C1=O [Example T171]	40	10	0	70	30	70	80	20	60	100	70	90
